In patent publication US20260132125A1, “PESTICIDALLY ACTIVE FUSED BICYCLIC HETEROAROMATIC COMPOUNDS” (priority 2022, published 2026):

Legend:
Type in all cases: in vivo
Spodoptera littoralis = experiment: Example B6: activity against Spodoptera littoralis (Egyptian cotton leaf worm), cotton leaf discs; settings: foliar, 72 h, 200 ppm, L1 larvae, 3 days after infestation, read-out: control (at least one of mortality, anti-feedant effect, growth inhibition)
Method: Cotton leaf discs were placed onto agar in 24-well microtiter plates and sprayed with aqueous test solutions prepared from 10′000 ppm DMSO stock solutions. After drying the leaf discs were infested with five L1 larvae. The samples were assessed for mortality, anti-feeding effect, and growth inhibition in comparison to untreated samples 3 days after infestation. Control of Spodoptera littoralis by a test sample is given when at least one of the categories mortality, anti-feedant effect, and growth inhibition is higher than the untreated sample.

Myzus persicae = experiment: Example B4: activity against Myzus persicae (green peach aphid), intrinsic activity; settings: 120 h, test rate 12 ppm, 5 days after infestation
Method: Test compounds prepared from 10′000 ppm DMSO stock solutions were applied by pipette into 24-well microtiter plates and mixed with sucrose solution. The plates were closed with a stretched Parafilm. A plastic stencil with 24 holes was placed onto the plate and infested pea seedlings were placed directly on the Parafilm. The infested plate was closed with a gel blotting paper and another plastic stencil and then turned upside down. The samples were assessed for mortality 5 days after infestation.

Chilo suppressalis = experiment: Example B1: activity against Chilo suppressalis (striped rice stemborer), artificial diet; settings: 144 h, 200 ppm, L2 larvae, 6 days after infestation, read-out: control (at least one of mortality, anti-feedant effect, growth inhibition)
Method: 24-well microtiter plates with artificial diet were treated with aqueous test solutions prepared from 10′000 ppm DMSO stock solutions by pipetting. After drying, the plates were infested with L2 larvae (6-8 per well). The samples were assessed for mortality, anti-feeding effect, and growth inhibition in comparison to untreated samples 6 days after infestation. Control of Chilo suppressalis by a test sample is given when at least one of the categories mortality, anti-feedant effect, and growth inhibition is higher than the untreated sample.

Diabrotica balteata = experiment: Example B2: activity against Diabrotica balteata (corn root worm), maize sprouts; settings: 96 h, L2 larvae, 4 days after infestation, read-out: effect in at least one of the two categories (mortality or growth inhibition)
Method: Maize sprouts placed onto an agar layer in 24-well microtiter plates were treated with aqueous test solutions prepared from 10′000 ppm DMSO stock solutions by spraying. After drying, the plates were infested with L2 larvae (6 to 10 per well). The samples were assessed for mortality and growth inhibition in comparison to untreated samples 4 days after infestation. The following compounds gave an effect of at least 80% in at least one of the two categories (mortality or growth inhibition) at an application rate of 200 ppm: P1, P2, P3, P4, P5, P7, P8, P9, P10, P11, P12, P13, P14, P15, P16, P17, P18, P19, P20, P21, P22, P23, P24, P25, P26, P27, P28, P29, P30, P31, P33, P34, P35, P36, P37, P38, P39, P40, P41, P42, P43, P45, P46, P47, P48, P49, P50, P51, P52, P53, P55, P57, P58, P59, P60, P61, P62, P63, P64, P65, P66, P67, P69, P71, P75, P81, P82, P83.

Plutella xylostella = experiment: Example B5: activity against Plutella xylostella (diamond back moth), artificial diet, eggs; settings: 192 h, 8 days after infestation, read-out: effect in at least one of the two categories (mortality or growth inhibition)
Method: 24-well microtiter plates with artificial diet were treated with aqueous test solutions prepared from 10′000 ppm DMSO stock solutions by pipetting. After drying, Plutella eggs were pipetted through a plastic stencil onto a gel blotting paper and the plate was closed with it. The samples were assessed for mortality and growth inhibition in comparison to untreated samples 8 days after infestation. The following compounds gave an effect of at least 80% in at least one of the two categories (mortality or growth inhibition) at an application rate of 200 ppm: P1, P2, P3, P4, P5, P6, P7, P8, P9, P10, P11, P12, P13, P14, P15, P16, P17, P18, P19, P20, P21, P22, P23, P24, P25, P26, P27, P28, P29, P30, P31, P32, P33, P34, P35, P36, P37, P38, P39, P40, P41, P42, P43, P44, P45, P46, P47, P48, P49, P50, P51, P52, P53, P54, P55, P57, P58, P59, P60, P61, P62, P63, P64, P65, P66, P67, P69, P70, P71, P72, P73, P74, P75, P77, P78, P81, P82, P83.

C[C@H](Nc1ncnc2c(Br)cc(Br)cc12)c1ncnn1-c1ncc(C(N)=O)s1 [Compound P36, 2-[5-[(1S)-1-[(6,8-dibromoquinazolin-4-yl)amino]ethyl]-1,2,4-triazol-1-yl]thiazole-5-carboxamide]
≥ 80%: percent control (mortality, anti-feedant effect or growth inhibition) at 200 ppm (Spodoptera littoralis) | mortality at 12 ppm (Myzus persicae) | percent control (mortality, anti-feedant effect or growth inhibition) at 200 ppm (Chilo suppressalis) | percent effect (mortality or growth inhibition) at 200 ppm (Diabrotica balteata) | percent effect (mortality or growth inhibition) at 200 ppm (Plutella xylostella)

C[C@H](Nc1ncnc2c(C(F)(F)F)cc(Cl)cc12)c1ncnn1-c1cc(C(=O)NC2CS(=O)(=O)C2)ncn1 [Compound P24, 6-[5-[(1S)-1-[[6-chloro-8-(trifluoromethyl)quinazolin-4-yl]amino]ethyl]-1,2,4-triazol-1-yl]-N-(1,1-dioxothietan-3-yl)pyrimidine-4-carboxamide]
≥ 80%: percent control (mortality, anti-feedant effect or growth inhibition) at 200 ppm (Spodoptera littoralis) | mortality at 12 ppm (Myzus persicae) | percent control (mortality, anti-feedant effect or growth inhibition) at 200 ppm (Chilo suppressalis) | percent effect (mortality or growth inhibition) at 200 ppm (Diabrotica balteata) | percent effect (mortality or growth inhibition) at 200 ppm (Plutella xylostella)

CNC(=O)c1cc(-n2ncnc2[C@H](C)Nc2ncnc3c(Cl)cc(I)cc23)ncn1 [Compound P4, 6-[5-[(1S)-1-[(8-chloro-6-iodo-quinazolin-4-yl)amino]ethyl]-1,2,4-triazol-1-yl]-N-methyl-pyrimidine-4-carboxamide]
≥ 80%: percent control (mortality, anti-feedant effect or growth inhibition) at 200 ppm (Spodoptera littoralis) | mortality at 12 ppm (Myzus persicae) | percent control (mortality, anti-feedant effect or growth inhibition) at 200 ppm (Chilo suppressalis) | percent effect (mortality or growth inhibition) at 200 ppm (Diabrotica balteata) | percent effect (mortality or growth inhibition) at 200 ppm (Plutella xylostella)

C[C@@H](c1ncnn1-c1cc(C(=O)N(C)C)ncn1)N(C)c1ncnc2c(I)cc(Cl)cc12 [Compound P66, 6-[5-[(1S)-1-[(6-chloro-8-iodo-quinazolin-4-yl)-methyl-amino]ethyl]-1,2,4-triazol-1-yl]-N,N-dimethyl-pyrimidine-4-carboxamide]
≥ 80%: percent control (mortality, anti-feedant effect or growth inhibition) at 200 ppm (Spodoptera littoralis) | mortality at 12 ppm (Myzus persicae) | percent control (mortality, anti-feedant effect or growth inhibition) at 200 ppm (Chilo suppressalis) | percent effect (mortality or growth inhibition) at 200 ppm (Diabrotica balteata) | percent effect (mortality or growth inhibition) at 200 ppm (Plutella xylostella)

C[C@@H](c1ncnn1-c1cc(C(=O)N(C)C2CC2)ncn1)N(C)c1ncnc2c(C(F)(F)F)cc(Cl)cc12 [Compound P81, 6-[5-[(1S)-1-[[6-chloro-8-(trifluoromethyl)quinazolin-4-yl]-methyl-amino]ethyl]-1,2,4-triazol-1-yl]-N-cyclopropyl-N-methyl-pyrimidine-4-carboxamide]
≥ 80%: percent control (mortality, anti-feedant effect or growth inhibition) at 200 ppm (Spodoptera littoralis) | mortality at 12 ppm (Myzus persicae) | percent control (mortality, anti-feedant effect or growth inhibition) at 200 ppm (Chilo suppressalis) | percent effect (mortality or growth inhibition) at 200 ppm (Diabrotica balteata) | percent effect (mortality or growth inhibition) at 200 ppm (Plutella xylostella)

C[C@H](Nc1ncnc2c(C(F)(F)F)cc(Cl)cc12)c1ncnn1-c1cc(C(=O)NO)ncn1 [Compound P26, 6-[5-[(1S)-1-[[6-chloro-8-(trifluoromethyl)quinazolin-4-yl]amino]ethyl]-1,2,4-triazol-1-yl]pyrimidine-4-carbohydroxamic acid]
≥ 80%: percent control (mortality, anti-feedant effect or growth inhibition) at 200 ppm (Spodoptera littoralis) | mortality at 12 ppm (Myzus persicae) | percent control (mortality, anti-feedant effect or growth inhibition) at 200 ppm (Chilo suppressalis) | percent effect (mortality or growth inhibition) at 200 ppm (Diabrotica balteata) | percent effect (mortality or growth inhibition) at 200 ppm (Plutella xylostella)

C[C@H](Nc1ncnc2c(C(F)(F)F)cc(Cl)cc12)c1ncnn1-c1cc(C(=O)N(C)O)ncn1 [Compound P46, 6-[5-[(1S)-1-[[6-chloro-8-(trifluoromethyl)quinazolin-4-yl]amino]ethyl]-1,2,4-triazol-1-yl]-N-hydroxy-N-methyl-pyrimidine-4-carboxamide]
≥ 80%: percent control (mortality, anti-feedant effect or growth inhibition) at 200 ppm (Spodoptera littoralis) | mortality at 12 ppm (Myzus persicae) | percent control (mortality, anti-feedant effect or growth inhibition) at 200 ppm (Chilo suppressalis) | percent effect (mortality or growth inhibition) at 200 ppm (Diabrotica balteata) | percent effect (mortality or growth inhibition) at 200 ppm (Plutella xylostella)

C[C@H](Nc1ncnc2c(Cl)cc(C(F)(F)F)cc12)c1ncnn1-c1cnc(C(=O)NCC#N)cn1 [Compound P69, 5-[5-[(1S)-1-[[8-chloro-6-(trifluoromethyl)quinazolin-4-yl]amino]ethyl]-1,2,4-triazol-1-yl]-N-(cyanomethyl)pyrazine-2-carboxamide]
≥ 80%: percent control (mortality, anti-feedant effect or growth inhibition) at 200 ppm (Spodoptera littoralis) | mortality at 12 ppm (Myzus persicae) | percent control (mortality, anti-feedant effect or growth inhibition) at 200 ppm (Chilo suppressalis) | percent effect (mortality or growth inhibition) at 200 ppm (Diabrotica balteata) | percent effect (mortality or growth inhibition) at 200 ppm (Plutella xylostella)

C[C@H](Nc1ncnc2c(C(F)(F)F)cc(Cl)cc12)c1ncnn1-c1cc(C(=O)NC2CC2)ncn1 [Compound P23, 6-[5-[(1S)-1-[[6-chloro-8-(trifluoromethyl)quinazolin-4-yl]amino]ethyl]-1,2,4-triazol-1-yl]-N-cyclopropyl-pyrimidine-4-carboxamide]
≥ 80%: percent control (mortality, anti-feedant effect or growth inhibition) at 200 ppm (Spodoptera littoralis) | mortality at 12 ppm (Myzus persicae) | percent control (mortality, anti-feedant effect or growth inhibition) at 200 ppm (Chilo suppressalis) | percent effect (mortality or growth inhibition) at 200 ppm (Diabrotica balteata) | percent effect (mortality or growth inhibition) at 200 ppm (Plutella xylostella)

C[C@H](Nc1ncnc2c(C(F)(F)F)cc(Cl)cc12)c1ncnn1-c1cc(C(=O)NC2CSC2)ncn1 [Compound P25, 6-[5-[(1S)-1-[[6-chloro-8-(trifluoromethyl)quinazolin-4-yl]amino]ethyl]-1,2,4-triazol-1-yl]-N-(thietan-3-yl)pyrimidine-4-carboxamide]
≥ 80%: percent control (mortality, anti-feedant effect or growth inhibition) at 200 ppm (Spodoptera littoralis) | mortality at 12 ppm (Myzus persicae) | percent control (mortality, anti-feedant effect or growth inhibition) at 200 ppm (Chilo suppressalis) | percent effect (mortality or growth inhibition) at 200 ppm (Diabrotica balteata) | percent effect (mortality or growth inhibition) at 200 ppm (Plutella xylostella)

C[C@H](Nc1ncnc2c(Cl)cc(I)cc12)c1ncnn1-c1cc(C#N)ncn1 [Compound P18, 6-[5-[(1S)-1-[(8-chloro-6-iodo-quinazolin-4-yl)amino]ethyl]-1,2,4-triazol-1-yl]pyrimidine-4-carbonitrile]
≥ 80%: percent control (mortality, anti-feedant effect or growth inhibition) at 200 ppm (Spodoptera littoralis) | mortality at 12 ppm (Myzus persicae) | percent control (mortality, anti-feedant effect or growth inhibition) at 200 ppm (Chilo suppressalis) | percent effect (mortality or growth inhibition) at 200 ppm (Diabrotica balteata) | percent effect (mortality or growth inhibition) at 200 ppm (Plutella xylostella)
